Data from US20210228548A1, “PHARMACEUTICAL COMPOSITION FOR PREVENTING, ALLEVIATING OR TREATING OSTEOARTHRITIS, CONTAINING RHODANINE DERIVATIVE AS ACTIVE INGREDIENT” (Avixgen Inc., priority 2018, published 2021).
Entries after “also recorded” stand apart in the source; their conditions may differ.

How the values were obtained:
Assay type in all cases: in vivo, C57/BL6 mice
ZIP8-overexpressing mice [1] = assay: Cartilage destruction in mice with osteoarthritis induced by ZIP8 overexpression (safranin-O staining, modified Mankin score); settings: Ad-ZIP8 mice, three injections; for modified Mankin score (degree of cartilage destruction): intra-articular 0.0075, 0.015, 0.03 mg/kg once a week, vehicle group 2 or higher, also decreased concentration-dependently, FIGS. 2A, 4A, 6A; for loss of the cartilage matrix (safranin-O staining of whole joint and cartilage): intra-articular co-injection 0.0075, 0.015, 0.03 mg/kg once a week, versus vehicle group, FIGS. 1, 3, 5
Procedure: (§1) Osteoarthritis-induced mice were prepared by overexpressing the zinc importer ZIP8 in the cartilage and joint tissues of mice.
(§2) Specifically, the cartilage and joint tissues of about 12-week-old male C57/BL6 mice were injected intra-articularly with a normal control adenovirus (Ad-C) or a ZIP8-expressing adenovirus (Ad-S1c39a8). A vehicle group was treated only with a vehicle without a vector. Each of the adenoviruses was injected at a concentration of 1×10^9 PFU a total of three times (once a week).
(§3) Meanwhile, in order to evaluate the effect of each of the therapeutic agents AVIX-7, MA3001 and MA6004 on the amelioration of osteoarthritis induced by ZIP8 overexpression, AVIX-7, MA3001 or MA6004 was co-injected into the joint when each adenovirus was injected.
(§4) Each of the therapeutic agents was used at doses of 0.0075 mg/kg, 0.015 mg/kg and 0.03 mg/kg mouse body weight. Each therapeutic agent was administered by injection once a week, and the amount of each therapeutic agent administered at each time point was 10 μl. One week after the day of the last injection of a total of three injections, the mice were sacrificed and the degree of cartilage destruction and the degree of occurrence of synovitis were analyzed.
In order to evaluate the therapeutic effect of AVIX-7, MA3001 or MA6004 on osteoarthritis in ZIP8-overexpressing mice, whole joint and cartilage tissues were stained with safranin-O and the degree of cartilage destruction was checked.
In addition, the degree of safranin-O staining (reflecting the degree of cartilage destruction) according to Table 2 below was observed and degraded according to the modified Mankin score (Mankin, Henry J., and Louis Lippiello. JBJS 52.3 (1970): 424-434.), and the grades were quantified graphically. The Mankin score is an index indicating the degree of arthritis and may be determined by the degree of safranin-O staining in mice, and the lower the Mankin score, the closer to normal.

ZIP8-overexpressing mice [2] = assay: Synovitis in ZIP8-overexpressing animal model (hematoxylin-eosin/safranin-O staining, synovitis score); settings: Ad-ZIP8 mice, intra-articular 0.0075, 0.015, 0.03 mg/kg once a week, three injections; for score of synovitis: untreated ZIP8 mice 2 or higher, FIGS. 2B, 4B, 6B; for inflammatory response (penetration of inflammatory cells into the synovium): versus vehicle group, FIGS. 1, 3, 5
Procedure: as §1, §2, §3, §4
In order to evaluate the osteoarthritis amelioration effect of each of the therapeutic agents developed in the present disclosure, the ZIP8-overexpressing animal model was treated with AVIX-7, MA3001 or MA6004, and the cartilage and joint tissues of the animal model were stained with hematoxylin-eosin/safranin-O, and the presence or absence of synovitis was checked. The ZIP8-overexpressing animal model was prepared by the method described in Example 1.
In addition, the degree of synovitis was scored according to “Synovitis score: discrimination between chronic low-grade and high-grade synovitis. Histopathology 49, 358-364” described in Table 3 below, and was quantified graphically.

[3] = test system: mice with osteoarthritis induced by DMM; assay: Osteoarthritis induced by destabilization of the medial meniscus (DMM): staining, OARSI grade, subchondral bone plate thickness; settings: intra-articular 0.0075, 0.015, 0.03 mg/kg once a week, three injections; for thickness of the subchondral bone plate (SBP): versus vehicle group (significantly increased), FIGS. 8B, 10B, 12B; for inflammation response in whole joint and cartilage tissues (images and OARSI grade): versus vehicle group, FIGS. 7B, 9B, 11B, 8A, 10A, 12A
Procedure: Mice with osteoarthritis induced by destabilization of the medial meniscus (DMM) were prepared. As a control group, a group (sham) whose meniscus was not damaged during surgery was used.
Specifically, osteoarthritis was induced by damaging the menisci of joints of about 12-week-old male C57/BL6 mice, and each therapeutic agent (AVIX-7, MA3001 or MA6004) was injected intra-articularly.
Each of the therapeutic agents was used at doses of 0.0075 mg/kg, 0.015 mg/kg and 0.03 mg/kg mouse body weight. Each therapeutic agent was administered by injection once a week, and the amount of each therapeutic agent administered at each time point was 10 μl. One week after the day of the last injection of a total of three injections, the mice were sacrificed and the effect of each therapeutic agent on the amelioration of osteoarthritis was evaluated.
In order to evaluate the effect of the compounds of the present disclosure on the amelioration of osteoarthritis, mice were subjected to destabilization of the medial meniscus (DMM) to induce osteoarthritis and were treated with AVIX-7, MA3001 or MA6004. In addition, the cartilage and joint tissues were stained with hematoxylin-eosin/safranin-O, and the effect of AVIX-7, MA3001 or MA6004 on the amelioration of osteoarthritis was evaluated pathologically. […] The OARSI grading method is described in Table 4 below.

| SMILES | modified Mankin score (degree of cartilage destruction) (ZIP8-overexpressing mice [1]) | loss of the cartilage matrix (safranin-O staining of whole joint and cartilage) (ZIP8-overexpressing mice [1]) | score of synovitis (ZIP8-overexpressing mice [2]) | inflammatory response (penetration of inflammatory cells into the synovium) (ZIP8-overexpressing mice [2]) | thickness of the subchondral bone plate (SBP) [3] | inflammation response in whole joint and cartilage tissues (images and OARSI grade) [3] |
| --- | --- | --- | --- | --- | --- | --- |
| O=C(O)CCN1C(=O)/C(=C\c2ccc(-c3ccc(Cl)cc3)o2)SC1=S [AVIX-7, 3-{5-[5-(4-chlorophenyl)-furan-2-ylmethylene]-4-oxo-2-thioxo-thiazolidin-3-yl}-propionic acid] | lower than that of the vehicle group | rescuing the loss of cartilage matrix; also recorded: concentration-dependently rescued | significantly decreased | alleviating synovitis; also recorded: alleviated | decreased | alleviated |
| CC(C)OC(=O)c1ccc(-c2ccc(/C=C3\SC(=S)N(CCCC(=O)O)C3=O)o2)cc1 [MA3001, 4-(5-((5-(4-(isopropoxycarbonyl)phenyl)furan-2-yl)methylene)-4-oxo-2-thioxothiazolidin-3-yl)butanoic acid] | lower than that of the vehicle group | rescuing the loss of cartilage matrix; also recorded: concentration-dependently rescued | significantly decreased | alleviating synovitis; also recorded: alleviated | decreased | alleviated |
| O=C(O)CCN1C(=O)SC(Cc2ccc(-c3ccc(Cl)cc3)o2)C1=O (stereo not drawn) [MA6004, 3-(5-((5-(4-chlorophenyl)furan-2-yl)methyl)-2,4-dioxothiazolidin-3-yl)propionic acid] | lower than that of the vehicle group | rescuing the loss of cartilage matrix; also recorded: concentration-dependently rescued | significantly decreased | alleviating synovitis; also recorded: alleviated | decreased | alleviated |
